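Briefly, cells in 96-well plates were exposed to five compound concentrations for 48 h, and endpoints were estimated by linear interpolation. GI50 is the concentration that inhibits growth by half.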 Active and inactive are the calls of the source. Rule as the data show it: active = GI50 up to about 1.1 µM and inactive = higher.
Assays:
Assay in all cases: NCI-60 cell line screen, 48 h
ACHN = test system: ACHN
DMS-114 = test system: DMS-114
HCC 2998 = test system: HCC 2998
HCT-116 = test system: HCT-116
HOP-92 = test system: HOP-92
K562 = test system: K562
KM12 = test system: KM12
NCI-H460 = test system: NCI-H460
SK-MEL-28 = test system: SK-MEL-28
SK-MEL-2 = test system: SK-MEL-2
SK-MEL-5 = test system: SK-MEL-5
UACC-62 = test system: UACC-62
OVCAR-4 = test system: OVCAR-4
RPMI-8226 = test system: RPMI-8226
RXF 393 = test system: RXF 393
BT-549 = test system: BT-549
DU-145 = test system: DU-145
MDA-MB-231 = test system: MDA-MB-231
MDA-N = test system: MDA-N
PC-3 = test system: PC-3

With `CCOC(=O)NC(=O)c1cn(CC(=O)NCC(=O)NCC(=O)NCCCN2CCN(CCCNC(=O)CNC(=O)CNC(=O)Cn3cc(C(=O)NC(=O)OCC)c(=O)[nH]c3=O)CC2)c(=O)[nH]c1=O` the GI50 (ACHN) was > 100 µM (inactive), the GI50 (DMS-114) was > 100 µM (inactive) and the GI50 (HCC 2998) was > 100 µM (inactive). For the same compound, the GI50 (HCT-116) was > 100 µM (inactive), the GI50 (HOP-92) was > 100 µM (inactive) and the GI50 (K562) was > 100 µM (inactive). For the same compound, the GI50 (KM12) was > 100 µM (inactive), the GI50 (NCI-H460) was > 100 µM (inactive) and the GI50 (SK-MEL-28) was > 100 µM (inactive). The GI50 (SK-MEL-2) was > 100 µM (inactive), the GI50 (SK-MEL-5) was > 100 µM (inactive) and the GI50 (UACC-62) was > 100 µM (inactive).
In the case of `COc1ccc(C(=C[N+](=O)[O-])c2ccc(OC)cc2)cc1`, the GI50 (ACHN) was 30.1 µM (inactive), the GI50 (DMS-114) was 4.13 µM (inactive) and the GI50 (HCC 2998) was 11.4 µM (inactive). For the same compound, the GI50 (HCT-116) was 8.05 µM (inactive), the GI50 (HOP-92) was 25.4 µM (inactive) and the GI50 (K562) was 3.69 µM (inactive). For the same compound, the GI50 (KM12) was 4.5 µM (inactive), the GI50 (NCI-H460) was 10.7 µM (inactive) and the GI50 (OVCAR-4) was 34.4 µM (inactive). For the same compound, the GI50 (RPMI-8226) was 3.84 µM (inactive), the GI50 (RXF 393) was 12.3 µM (inactive) and the GI50 (SK-MEL-28) was 16.2 µM (inactive). For the same compound, the GI50 (SK-MEL-2) was 6.14 µM (inactive), the GI50 (SK-MEL-5) was 28.6 µM (inactive) and the GI50 (UACC-62) was 9.55 µM (inactive).
`Cc1cc2occ(C)c(=O)c2c2c1OC(C)(C)S2` was tested, and the GI50 (ACHN) was > 100 µM (inactive), the GI50 (DMS-114) was > 100 µM (inactive) and the GI50 (HCC 2998) was > 100 µM (inactive). For the same compound, the GI50 (HCT-116) was > 100 µM (inactive), the GI50 (HOP-92) was 55.3 µM (inactive) and the GI50 (K562) was 51.9 µM (inactive). For the same compound, the GI50 (KM12) was > 100 µM (inactive), the GI50 (NCI-H460) was > 100 µM (inactive) and the GI50 (OVCAR-4) was > 100 µM (inactive). For the same compound, the GI50 (RPMI-8226) was 82.4 µM (inactive), the GI50 (RXF 393) was 88.1 µM (inactive) and the GI50 (SK-MEL-28) was > 100 µM (inactive). The GI50 (SK-MEL-2) was > 100 µM (inactive), the GI50 (SK-MEL-5) was > 100 µM (inactive) and the GI50 (UACC-62) was > 100 µM (inactive).
For `O=C1CCC2(O)c3ccccc3C2Cc2ccccc21` (stereo not drawn), the GI50 (ACHN) was > 100 µM (inactive), the GI50 (DMS-114) was > 100 µM (inactive) and the GI50 (HCC 2998) was > 100 µM (inactive). The GI50 (HCT-116) was > 100 µM (inactive), the GI50 (HOP-92) was 70.1 µM (inactive) and the GI50 (K562) was > 100 µM (inactive). The GI50 (KM12) was > 100 µM (inactive), the GI50 (NCI-H460) was > 100 µM (inactive) and the GI50 (RPMI-8226) was > 100 µM (inactive). The GI50 (RXF 393) was > 100 µM (inactive), the GI50 (SK-MEL-28) was > 100 µM (inactive) and the GI50 (SK-MEL-2) was > 100 µM (inactive). For the same compound, the GI50 (UACC-62) was > 100 µM (inactive).
`O=C(NC12CC3CC(CC(C3)C1)C2)C(=O)c1c[nH]c2ccccc12` was tested, and the GI50 (ACHN) was 15.5 µM (inactive), the GI50 (DMS-114) was 18 µM (inactive) and the GI50 (HCC 2998) was 14.8 µM (inactive). The GI50 (HCT-116) was 14.7 µM (inactive), the GI50 (HOP-92) was 15.1 µM (inactive) and the GI50 (K562) was 5.77 µM (inactive). The GI50 (KM12) was 13.9 µM (inactive), the GI50 (NCI-H460) was 12.1 µM (inactive) and the GI50 (OVCAR-4) was 16.3 µM (inactive). For the same compound, the GI50 (RPMI-8226) was 12.2 µM (inactive), the GI50 (SK-MEL-28) was 16.3 µM (inactive) and the GI50 (SK-MEL-2) was 17.9 µM (inactive). For the same compound, the GI50 (SK-MEL-5) was 15.4 µM (inactive) and the GI50 (UACC-62) was 13.4 µM (inactive).
`CCOC(=O)C1Cc2ccc3c4c(ccc(c24)C1)CC(C(=O)OCC)C3` was tested, and the GI50 (ACHN) was > 100 µM (inactive), the GI50 (DMS-114) was > 100 µM (inactive) and the GI50 (HCC 2998) was > 100 µM (inactive). The GI50 (HCT-116) was > 100 µM (inactive), the GI50 (HOP-92) was > 100 µM (inactive) and the GI50 (K562) was > 100 µM (inactive). For the same compound, the GI50 (KM12) was > 100 µM (inactive), the GI50 (RPMI-8226) was > 100 µM (inactive) and the GI50 (RXF 393) was > 100 µM (inactive). The GI50 (SK-MEL-28) was > 100 µM (inactive), the GI50 (SK-MEL-2) was > 100 µM (inactive) and the GI50 (SK-MEL-5) was > 100 µM (inactive). For the same compound, the GI50 (UACC-62) was > 100 µM (inactive).
In the case of `CCCCCCCCCC[S+]([O-])CC(CO)NC(=O)/C=C/c1c(C)nc(O)nc1O` (stereo not drawn), the GI50 (ACHN) was 13.4 µM (inactive), the GI50 (BT-549) was 10.5 µM (inactive) and the GI50 (DMS-114) was 0.152 µM (active). For the same compound, the GI50 (DU-145) was 43.4 µM (inactive), the GI50 (HCC 2998) was 0.244 µM (active) and the GI50 (HOP-92) was 0.189 µM (active). The GI50 (K562) was 0.501 µM (active), the GI50 (KM12) was 0.202 µM (active) and the GI50 (MDA-MB-231) was 2.97 µM (inactive). The GI50 (MDA-N) was 25.1 µM (inactive), the GI50 (OVCAR-4) was 0.199 µM (active) and the GI50 (PC-3) was 1.43 µM (inactive). The GI50 (RPMI-8226) was 1.04 µM (active), the GI50 (RXF 393) was 0.474 µM (active) and the GI50 (SK-MEL-28) was 1.21 µM (inactive). The GI50 (SK-MEL-2) was 0.721 µM (active), the GI50 (SK-MEL-5) was 0.918 µM (active) and the GI50 (UACC-62) was 0.628 µM (active).
`COc1ccc(/C=C\c2cc(OC)c(OC)c(OC)c2)cc1OC(=O)NCCN(C)C` was tested, and the GI50 (ACHN) was 0.000659 µM (active), the GI50 (BT-549) was 0.83 µM (active) and the GI50 (DMS-114) was < 0.0001 µM (active). For the same compound, the GI50 (DU-145) was 0.000307 µM (active), the GI50 (HCC 2998) was 0.0631 µM (active) and the GI50 (HCT-116) was < 0.0001 µM (active). The GI50 (HOP-92) was < 0.0001 µM (active), the GI50 (K562) was < 0.0001 µM (active) and the GI50 (MDA-MB-231) was 0.01 µM (active). The GI50 (MDA-N) was < 0.0001 µM (active), the GI50 (NCI-H460) was 0.000125 µM (active) and the GI50 (OVCAR-4) was 0.00144 µM (active). The GI50 (PC-3) was 0.000152 µM (active), the GI50 (RPMI-8226) was 0.00014 µM (active) and the GI50 (RXF 393) was < 0.0001 µM (active). For the same compound, the GI50 (SK-MEL-28) was 11.8 µM (inactive), the GI50 (SK-MEL-5) was < 0.0001 µM (active) and the GI50 (UACC-62) was < 0.0001 µM (active).
`CCOc1ccc(NCC2CC/C(=C\c3ccc(Cl)cc3)C2=O)cc1` (stereo not drawn) was tested, and the GI50 (ACHN) was > 40.6 µM (inactive), the GI50 (DMS-114) was 26.4 µM (inactive) and the GI50 (HCC 2998) was 13 µM (inactive). For the same compound, the GI50 (HCT-116) was 31.1 µM (inactive), the GI50 (HOP-92) was 20.3 µM (inactive) and the GI50 (K562) was 6.81 µM (inactive). For the same compound, the GI50 (KM12) was 14.2 µM (inactive), the GI50 (NCI-H460) was 89.3 µM (inactive) and the GI50 (OVCAR-4) was 39.7 µM (inactive). For the same compound, the GI50 (RPMI-8226) was 2.54 µM (inactive), the GI50 (RXF 393) was > 47.9 µM (inactive) and the GI50 (SK-MEL-28) was 50.2 µM (inactive). For the same compound, the GI50 (SK-MEL-2) was 22.4 µM (inactive), the GI50 (SK-MEL-5) was 23 µM (inactive) and the GI50 (UACC-62) was > 40.7 µM (inactive).

Source: ChEMBL document CHEMBL1201862, “PubChem BioAssay data set” (2004)
